Data: patent publication US20170216401A1, “COMBINATION FOR USE IN A METHOD OF TREATING CANCER” (priority 2014, published 2017)

Tests used:
[1] = system: human glioma cells HTZ-349 and A-172; assay: cell-mediated tumor cytotoxicity assay, calcein release (CARE-LASS); assay type: cell-based; conditions: PBMC and target cells preincubated 6 days with SD-208, IL-2 and GM-CSF; effector/target 1:100, 1:10, 1:1; 4 hours; FIG. 2
Protocol: Establishment and culture of primary tumor cell cultures were performed as previously described (Jachimczak et al., 1993). Briefly, tumor specimens were cultivated in Dulbecco's minimum essential medium (DMEM) containing 10% FCS, 1% BME vitamin solution, and 1% MEM nonessential amino acids. HTZ-349 was established as primary cell culture from a patient suffering from glioblastoma multiforme (GBM, Grade IV). A-172 cells were obtained from ATCC (GBM). Peripheral blood mononuclear cells (PBMC) were isolated from venous blood of two healthy donors by standard Ficoll-Hypaque gradient centrifugation (Jachimczak et al., 1993).
PBMC were activated with IL-2 (Proleukin S) and GM-CSF. Immune cell cytotoxicity against the target tumor cells was determined in a calcein-release assay (Lichtenfels et al., 1994) by adding pre-activated PBMC to glioma target cells at an effector/target ratio of 1:100, 1:10 and 1:1. After 4 hours, fluorescence of supernatants was analyzed (Fluoroscan, Germany) and calculated as described (Lichtenfels et al., 1994).

[2] = system: TGF-beta signal transduction; conditions: p-SMAD2 western blot (Gaspar et al., 2007); cited from earlier work

Question: Which “allogenous cell cytotoxicity against glioma target cells” value [1] does the source give for `Fc1ccc(Cl)cc1-c1nc(Nc2ccncc2)c2nccnc2n1` [SD-208] here?
Answer: enhanced

Question: What about the “inhibition of TGF-beta signal transduction” value [2] of the same compound?
Answer: inhibits TGF-beta signal transduction in a dose-dependent fashion
